Laboratory results from patent publication US4452778A, “Synergistic antibacterial compositions and method of treatment of infections caused by multiple antibiotic-resistant organisms” (Eli Lilly and Company, priority 1981, dated 1984).
Like-named read-outs stand apart in the source and are kept apart here.

Legend:
[1] = system: Acinetobacter sp.; assay: Checkerboard broth dilution synergy study (mic); type: cell-based; conditions: Table II; for MIC: Acinetobacter, read-out: mic, drug alone
[2] = system: Pseudomonas maltophilia; assay: Checkerboard broth dilution synergy study (mic); type: cell-based; conditions: Table II; for MIC: Stenotrophomonas maltophilia, read-out: mic, drug alone
[3] = system: E. cloacae; assay: Checkerboard broth dilution synergy study (mic); type: cell-based; conditions: Table II; for MIC: Enterobacter cloacae, read-out: mic, drug alone
[4] = system: Proteus mirabilis; assay: Checkerboard broth dilution synergy study (mic); type: cell-based; conditions: Table II, strain Allen
[5] = system: Proteus vulgaris; assay: Checkerboard broth dilution synergy study (mic); type: cell-based; conditions: Table II; for MIC: Proteus vulgaris, read-out: mic, drug alone
[6] = single 1 mg/kg (i.m.), healthy volunteers; cited from earlier work
[7] = system: Proteus rettgeri; assay: Checkerboard broth dilution synergy study (mic); type: cell-based; conditions: Table II, strain 65
[8] = system: Serratia marcescens; assay: Checkerboard broth dilution synergy study (mic); type: cell-based; conditions: Table II; for MIC: Serratia marcescens, read-out: mic, drug alone
[9] = system: Klebsiella pneumoniae; assay: Checkerboard broth dilution synergy study (mic); type: cell-based; conditions: Table II; for MIC: Klebsiella pneumoniae, read-out: mic, drug alone
[10] = system: Pseudomonas aeruginosa; assay: Checkerboard broth dilution synergy study (mic); type: cell-based; conditions: Table II; for MIC: Pseudomonas aeruginosa, read-out: mic, drug alone
[11] = system: E. coli; assay: Checkerboard broth dilution synergy study (mic); type: cell-based; conditions: Table II; for MIC: Escherichia coli, read-out: mic, drug alone

NC[C@H]1O[C@H](O[C@H]2[C@H](O)[C@@H](O[C@H]3O[C@H](CO)[C@@H](O)[C@H](N)[C@H]3O)[C@H](N)C[C@@H]2N)[C@H](N)C[C@@H]1O [tobramycin]
0.5 µg/mL: MIC ([1]; strain 28-1) | mic of each drug in combination I + T ([1]; strain 28-1) | mic of each drug in combination I + T ([1]; strain 28-2) | mic of each drug in combination I + T ([1]; strain 106) | mic of each drug in combination I + T ([1]; strain 107) | mic of each drug in combination I + T ([1]; strain 109) | mic of each drug in combination I + T ([2]; strain 505) | mic of each drug in combination I + T ([3]; strain 1246) | mic of each drug in combination I + T ([8]; strain Townsend) | mic of each drug in combination I + T ([9]; strain 130) | mic of each drug in combination I + T ([9]; strain 933) | mic of each drug in combination I + T ([10]; strain 424) | mic of each drug in combination I + T ([11]; strain 1260)
0.06 µg/mL: mic of each drug in combination I + T ([9]; strain 512)
4 µg/mL: MIC ([1]; strain 28-2) | MIC ([1]; strain 107) | MIC ([2]; strain 11) | mic of each drug in combination I + T ([8]; strain 14142) | MIC ([10]; strain 366) | MIC ([11]; strain Briley) | mic of each drug in combination I + T ([11]; strain 46-2) | mic of each drug in combination I + T ([11]; strain 136-3) | mic of each drug in combination I + T ([11]; strain 1253) | mic of each drug in combination I + T ([11]; strain Dill)
4.4 µg/mL: peak serum concentrations [6]
< 0.5 µg/mL: mic of each drug in combination I + T ([10]; strain 447)
64 µg/mL: MIC ([2]; strain 10) | MIC ([5]; strain 363) | MIC ([7]; Providencia rettgeri, read-out: mic, drug alone) | MIC ([8]; strain 796) | MIC ([10]; strain 424) | MIC ([10]; strain 447) | MIC ([10]; strain 1484) | MIC ([11]; strain 77-3) | MIC ([11]; strain 136-3)
8 µg/mL: mic of each drug in combination I + T ([2]; strain 10) | mic of each drug in combination I + T ([3]; strain B293) | mic of each drug in combination I + T ([8]; strain 100) | MIC ([10]; strain 84) | mic of each drug in combination I + T ([11]; strain 1262) | mic of each drug in combination I + T ([11]; strain 1415) | mic of each drug in combination I + T ([11]; strain Briley)
< 0.015 µg/mL: mic of each drug in combination I + T ([3]; strain 1415) | mic of each drug in combination I + T ([9]; strain 463)
> 64 µg/mL: MIC ([3]; strain B293) | MIC ([8]; strain 14142) | MIC ([9]; strain 512) | MIC ([9]; strain 1204-2) | MIC ([10]; strain Davis) | MIC ([11]; strain 46-2) | MIC ([11]; strain 1260) | MIC ([11]; strain Dill)
16 µg/mL: MIC ([3]; strain 1246) | MIC ([8]; strain 100) | MIC ([8]; strain 302-2) | mic of each drug in combination I + T ([8]; strain 796) | MIC ([9]; strain 130) | MIC ([9]; strain 463) | MIC ([11]; strain 1262)
2 µg/mL: mic of each drug in combination I + T ([2]; strain 11) | mic of each drug in combination I + T ([3]; strain 1253) | mic of each drug in combination I + T ([10]; strain 366) | mic of each drug in combination I + T ([10]; strain 1484)
32 µg/mL: MIC ([2]; strain 505) | MIC ([3]; strain 1253) | MIC ([3]; strain 1415) | MIC ([4]; Proteus mirabilis, read-out: mic, drug alone) | MIC ([5]; strain Shide) | MIC ([8]; strain Townsend) | MIC ([9]; strain 214-1) | MIC ([9]; strain 933)
1 µg/mL: MIC ([1]; strain 106) | MIC ([1]; strain 109) | mic of each drug in combination I + T [4] | mic of each drug in combination I + T ([5]; strain 363) | mic of each drug in combination I + T ([5]; strain Shide) | mic of each drug in combination I + T [7] | mic of each drug in combination I + T ([8]; strain 302-2) | mic of each drug in combination I + T ([10]; strain 84) | mic of each drug in combination I + T ([10]; strain Davis)
0.03 µg/mL: mic of each drug in combination I + T ([9]; strain 214-1) | mic of each drug in combination I + T ([9]; strain 1204-2)
0.25 µg/mL: mic of each drug in combination I + T ([11]; strain 77-3)
